Laboratory results reported in ChEMBL document CHEMBL5465560, “Selectivity Literature for EUbOPEN Chemogenomic Library” (2024).
Values belong to the compound of their own block, whether it stands above or below them.

Key:
[1] = molecular target: Rho-associated protein kinase 2 (Homo sapiens, UniProt O75116); assay: Selectivity interaction (KinomeScan (DiscoverX)) EUB0000618a ROCK2; conditions: at 10 µM
[2] = molecular target: Fibroblast growth factor receptor 2 (Homo sapiens) (UniProt P21802); assay: Selectivity interaction (KinomeScan (DiscoverX)) EUB0000607a FGFR2; conditions: at 10 µM
[3] = molecular target: T1, Serine/threonine-protein kinase LATS1 (Homo sapiens) (UniProt O95835); assay: Selectivity interaction (KinomeScan (DiscoverX)) EUB0000045b LATS1
T1 sequence (whole entry): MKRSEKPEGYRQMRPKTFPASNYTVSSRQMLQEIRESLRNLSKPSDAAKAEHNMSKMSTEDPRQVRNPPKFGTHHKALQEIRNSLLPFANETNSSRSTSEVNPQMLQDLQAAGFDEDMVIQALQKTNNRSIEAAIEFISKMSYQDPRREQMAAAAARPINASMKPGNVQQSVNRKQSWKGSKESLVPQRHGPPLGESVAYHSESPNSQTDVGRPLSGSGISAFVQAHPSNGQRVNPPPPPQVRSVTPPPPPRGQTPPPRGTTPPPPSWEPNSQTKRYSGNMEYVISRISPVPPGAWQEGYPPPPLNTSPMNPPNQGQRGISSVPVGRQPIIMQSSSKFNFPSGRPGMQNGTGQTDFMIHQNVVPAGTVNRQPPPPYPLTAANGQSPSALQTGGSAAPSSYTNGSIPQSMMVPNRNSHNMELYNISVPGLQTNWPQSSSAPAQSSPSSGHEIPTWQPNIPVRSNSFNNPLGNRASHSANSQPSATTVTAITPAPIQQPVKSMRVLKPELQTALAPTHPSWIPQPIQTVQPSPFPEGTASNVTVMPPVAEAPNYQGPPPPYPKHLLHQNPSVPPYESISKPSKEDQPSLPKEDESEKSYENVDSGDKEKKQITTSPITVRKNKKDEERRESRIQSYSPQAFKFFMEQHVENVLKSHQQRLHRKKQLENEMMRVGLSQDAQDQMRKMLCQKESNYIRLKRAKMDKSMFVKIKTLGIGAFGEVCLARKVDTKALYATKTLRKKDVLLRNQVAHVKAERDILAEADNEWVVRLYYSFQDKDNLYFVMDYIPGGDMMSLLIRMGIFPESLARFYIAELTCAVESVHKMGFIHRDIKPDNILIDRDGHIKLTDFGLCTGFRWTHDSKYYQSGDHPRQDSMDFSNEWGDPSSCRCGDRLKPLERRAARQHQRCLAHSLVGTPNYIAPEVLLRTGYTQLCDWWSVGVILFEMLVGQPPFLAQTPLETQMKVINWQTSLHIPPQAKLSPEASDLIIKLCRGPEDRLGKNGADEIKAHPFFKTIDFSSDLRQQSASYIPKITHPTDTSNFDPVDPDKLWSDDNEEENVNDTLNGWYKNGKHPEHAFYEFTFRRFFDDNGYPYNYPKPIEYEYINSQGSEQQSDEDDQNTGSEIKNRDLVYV

[4] = molecular target: Tyrosine-protein kinase BTK (Homo sapiens, UniProt Q06187); assay: Selectivity interaction (ActivX KiNativ screen (kinase selectivity in THP-1 cell lysates)) EUB0000639a BTK; assay type: subcellular; conditions: lysate, at 0.01 µM
[5] = molecular target: Tyrosine-protein kinase CSK (Homo sapiens) (UniProt P41240); assay: Selectivity interaction (Kinase panel (Invitrogen)) EUB0000639a CSK; conditions: at 200 nM
[6] = molecular target: Ribosomal protein S6 kinase alpha-3 (Homo sapiens, UniProt P51812); assay: Selectivity interaction (ActivX KiNativ screen (kinase selectivity in THP-1 cell lysates)) EUB0000639a RPS6KA3; assay type: subcellular; conditions: lysate, at 0.04 µM
[7] = test system: T2, Receptor-type tyrosine-protein kinase FLT3 (Homo sapiens), P36888 [D835Y]; assay: Selectivity interaction (ProQinase) EUB0000171b FLT3
T2 sequence (whole entry): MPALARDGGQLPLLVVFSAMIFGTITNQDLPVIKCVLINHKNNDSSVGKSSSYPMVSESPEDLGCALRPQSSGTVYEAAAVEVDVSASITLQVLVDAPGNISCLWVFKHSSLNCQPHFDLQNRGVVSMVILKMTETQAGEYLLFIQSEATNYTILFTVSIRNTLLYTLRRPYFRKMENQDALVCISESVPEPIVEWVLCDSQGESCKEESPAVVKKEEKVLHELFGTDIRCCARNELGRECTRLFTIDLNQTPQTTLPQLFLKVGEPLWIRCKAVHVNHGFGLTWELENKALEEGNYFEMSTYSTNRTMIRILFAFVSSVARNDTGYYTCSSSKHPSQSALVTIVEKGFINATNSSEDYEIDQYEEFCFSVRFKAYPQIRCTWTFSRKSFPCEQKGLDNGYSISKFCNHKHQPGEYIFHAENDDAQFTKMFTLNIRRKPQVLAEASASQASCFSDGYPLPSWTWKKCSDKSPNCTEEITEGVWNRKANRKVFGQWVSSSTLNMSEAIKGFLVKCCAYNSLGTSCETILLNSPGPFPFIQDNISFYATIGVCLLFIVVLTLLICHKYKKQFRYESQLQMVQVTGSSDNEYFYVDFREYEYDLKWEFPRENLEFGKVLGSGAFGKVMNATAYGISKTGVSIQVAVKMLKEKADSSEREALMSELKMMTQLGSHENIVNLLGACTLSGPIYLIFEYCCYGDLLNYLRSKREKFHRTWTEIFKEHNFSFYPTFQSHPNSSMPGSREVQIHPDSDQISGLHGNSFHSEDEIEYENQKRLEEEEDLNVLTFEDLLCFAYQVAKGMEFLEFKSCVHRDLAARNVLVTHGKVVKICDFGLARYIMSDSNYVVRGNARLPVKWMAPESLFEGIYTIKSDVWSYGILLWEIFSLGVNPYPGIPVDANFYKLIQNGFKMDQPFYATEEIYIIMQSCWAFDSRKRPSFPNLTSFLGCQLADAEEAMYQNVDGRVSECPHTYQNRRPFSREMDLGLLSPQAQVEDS

[8] = molecular target: LIM domain kinase 1 (Homo sapiens) (UniProt P53667); assay: Selectivity interaction (ProQinase) EUB0000171b LIMK1
LIM domain kinase 1 (Homo sapiens), sequence (P53667 whole entry, looked up, the tested form may be a part): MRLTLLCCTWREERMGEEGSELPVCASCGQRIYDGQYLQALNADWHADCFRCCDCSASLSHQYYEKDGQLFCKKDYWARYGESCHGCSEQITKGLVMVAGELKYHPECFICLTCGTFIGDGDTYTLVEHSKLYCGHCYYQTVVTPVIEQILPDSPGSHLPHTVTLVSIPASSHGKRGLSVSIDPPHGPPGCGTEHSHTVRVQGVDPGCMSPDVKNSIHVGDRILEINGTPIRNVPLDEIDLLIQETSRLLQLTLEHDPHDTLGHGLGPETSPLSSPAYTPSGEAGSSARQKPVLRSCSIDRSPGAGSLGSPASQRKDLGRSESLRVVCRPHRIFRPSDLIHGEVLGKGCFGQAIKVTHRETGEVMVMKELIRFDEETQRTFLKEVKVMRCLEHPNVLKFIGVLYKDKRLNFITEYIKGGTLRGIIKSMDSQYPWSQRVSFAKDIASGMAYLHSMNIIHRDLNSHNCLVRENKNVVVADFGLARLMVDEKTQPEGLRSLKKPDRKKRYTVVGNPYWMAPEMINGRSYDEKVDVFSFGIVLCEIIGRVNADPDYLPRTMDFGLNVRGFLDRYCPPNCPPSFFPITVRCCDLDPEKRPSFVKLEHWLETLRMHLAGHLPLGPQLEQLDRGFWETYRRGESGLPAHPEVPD

Ribosomal protein S6 kinase alpha-3, sequence (P51812 whole entry): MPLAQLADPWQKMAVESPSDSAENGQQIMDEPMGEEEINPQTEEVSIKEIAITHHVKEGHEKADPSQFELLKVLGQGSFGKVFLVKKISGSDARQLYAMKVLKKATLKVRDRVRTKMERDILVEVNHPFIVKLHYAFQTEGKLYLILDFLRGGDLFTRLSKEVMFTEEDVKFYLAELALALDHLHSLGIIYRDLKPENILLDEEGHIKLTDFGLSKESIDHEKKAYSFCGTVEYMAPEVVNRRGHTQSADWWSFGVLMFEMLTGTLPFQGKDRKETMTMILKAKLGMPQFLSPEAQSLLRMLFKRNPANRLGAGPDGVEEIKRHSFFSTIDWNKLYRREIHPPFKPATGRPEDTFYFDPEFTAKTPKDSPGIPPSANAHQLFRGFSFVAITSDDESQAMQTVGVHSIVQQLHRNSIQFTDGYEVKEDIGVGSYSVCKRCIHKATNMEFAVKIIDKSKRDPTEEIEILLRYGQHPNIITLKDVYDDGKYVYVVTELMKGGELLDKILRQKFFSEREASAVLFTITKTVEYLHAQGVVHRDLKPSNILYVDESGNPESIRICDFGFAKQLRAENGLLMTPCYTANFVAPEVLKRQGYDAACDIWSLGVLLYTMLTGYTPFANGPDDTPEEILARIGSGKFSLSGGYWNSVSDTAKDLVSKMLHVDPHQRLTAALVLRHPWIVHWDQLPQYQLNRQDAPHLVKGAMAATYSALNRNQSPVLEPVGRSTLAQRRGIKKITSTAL
Tyrosine-protein kinase BTK, sequence (Q06187 whole entry): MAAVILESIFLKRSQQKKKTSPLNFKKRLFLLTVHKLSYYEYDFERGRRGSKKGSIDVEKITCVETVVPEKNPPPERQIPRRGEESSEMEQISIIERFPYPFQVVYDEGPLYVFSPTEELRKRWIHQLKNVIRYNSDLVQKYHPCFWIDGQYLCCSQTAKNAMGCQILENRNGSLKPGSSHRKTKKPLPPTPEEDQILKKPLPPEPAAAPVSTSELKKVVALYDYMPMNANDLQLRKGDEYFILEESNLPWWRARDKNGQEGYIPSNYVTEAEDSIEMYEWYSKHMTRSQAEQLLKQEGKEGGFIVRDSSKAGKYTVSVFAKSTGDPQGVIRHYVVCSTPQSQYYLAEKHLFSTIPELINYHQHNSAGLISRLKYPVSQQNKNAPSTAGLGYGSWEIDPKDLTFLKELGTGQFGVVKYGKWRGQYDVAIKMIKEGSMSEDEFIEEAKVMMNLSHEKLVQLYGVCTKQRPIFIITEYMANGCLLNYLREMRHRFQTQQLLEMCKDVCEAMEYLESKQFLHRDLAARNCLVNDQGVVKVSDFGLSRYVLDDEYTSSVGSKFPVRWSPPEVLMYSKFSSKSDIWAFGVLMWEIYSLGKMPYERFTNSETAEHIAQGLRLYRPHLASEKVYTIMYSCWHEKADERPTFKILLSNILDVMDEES
Rho-associated protein kinase 2, sequence (O75116 whole entry, looked up): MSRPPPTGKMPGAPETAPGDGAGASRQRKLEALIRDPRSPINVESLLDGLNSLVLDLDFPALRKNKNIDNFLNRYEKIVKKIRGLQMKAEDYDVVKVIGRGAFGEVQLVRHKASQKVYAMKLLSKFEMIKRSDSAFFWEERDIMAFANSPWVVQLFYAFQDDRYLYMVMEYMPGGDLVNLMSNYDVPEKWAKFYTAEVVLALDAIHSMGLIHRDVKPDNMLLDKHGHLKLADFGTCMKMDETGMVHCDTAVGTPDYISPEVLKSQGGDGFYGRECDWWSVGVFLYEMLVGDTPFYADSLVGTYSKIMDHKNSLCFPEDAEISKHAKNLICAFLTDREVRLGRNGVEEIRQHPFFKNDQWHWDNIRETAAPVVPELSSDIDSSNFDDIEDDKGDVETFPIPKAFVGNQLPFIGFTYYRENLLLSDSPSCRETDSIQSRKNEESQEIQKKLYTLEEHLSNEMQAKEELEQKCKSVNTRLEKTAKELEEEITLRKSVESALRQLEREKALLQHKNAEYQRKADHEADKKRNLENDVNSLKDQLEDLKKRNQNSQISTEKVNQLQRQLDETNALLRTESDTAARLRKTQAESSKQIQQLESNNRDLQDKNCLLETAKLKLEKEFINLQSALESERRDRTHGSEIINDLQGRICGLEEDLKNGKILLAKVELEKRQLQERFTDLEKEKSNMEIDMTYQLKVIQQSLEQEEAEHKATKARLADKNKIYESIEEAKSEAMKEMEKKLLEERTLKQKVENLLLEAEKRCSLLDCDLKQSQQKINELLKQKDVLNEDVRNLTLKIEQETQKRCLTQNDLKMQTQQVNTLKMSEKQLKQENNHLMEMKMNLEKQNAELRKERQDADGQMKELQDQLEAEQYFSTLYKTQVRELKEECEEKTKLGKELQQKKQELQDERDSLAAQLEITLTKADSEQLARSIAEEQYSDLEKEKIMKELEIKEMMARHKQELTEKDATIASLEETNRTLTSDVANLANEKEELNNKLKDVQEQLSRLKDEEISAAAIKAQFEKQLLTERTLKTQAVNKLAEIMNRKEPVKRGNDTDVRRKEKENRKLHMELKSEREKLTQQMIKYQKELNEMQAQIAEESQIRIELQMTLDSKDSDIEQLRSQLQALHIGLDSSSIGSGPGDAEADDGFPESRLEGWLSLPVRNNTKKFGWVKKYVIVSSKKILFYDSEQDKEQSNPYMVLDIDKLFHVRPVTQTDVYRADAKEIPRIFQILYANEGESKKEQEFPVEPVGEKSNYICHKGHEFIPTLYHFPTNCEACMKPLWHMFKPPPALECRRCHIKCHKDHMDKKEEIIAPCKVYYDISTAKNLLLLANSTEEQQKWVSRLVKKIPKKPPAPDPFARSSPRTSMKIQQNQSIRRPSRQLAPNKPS
Fibroblast growth factor receptor 2 (Homo sapiens), sequence (P21802 22-821 limits assumed): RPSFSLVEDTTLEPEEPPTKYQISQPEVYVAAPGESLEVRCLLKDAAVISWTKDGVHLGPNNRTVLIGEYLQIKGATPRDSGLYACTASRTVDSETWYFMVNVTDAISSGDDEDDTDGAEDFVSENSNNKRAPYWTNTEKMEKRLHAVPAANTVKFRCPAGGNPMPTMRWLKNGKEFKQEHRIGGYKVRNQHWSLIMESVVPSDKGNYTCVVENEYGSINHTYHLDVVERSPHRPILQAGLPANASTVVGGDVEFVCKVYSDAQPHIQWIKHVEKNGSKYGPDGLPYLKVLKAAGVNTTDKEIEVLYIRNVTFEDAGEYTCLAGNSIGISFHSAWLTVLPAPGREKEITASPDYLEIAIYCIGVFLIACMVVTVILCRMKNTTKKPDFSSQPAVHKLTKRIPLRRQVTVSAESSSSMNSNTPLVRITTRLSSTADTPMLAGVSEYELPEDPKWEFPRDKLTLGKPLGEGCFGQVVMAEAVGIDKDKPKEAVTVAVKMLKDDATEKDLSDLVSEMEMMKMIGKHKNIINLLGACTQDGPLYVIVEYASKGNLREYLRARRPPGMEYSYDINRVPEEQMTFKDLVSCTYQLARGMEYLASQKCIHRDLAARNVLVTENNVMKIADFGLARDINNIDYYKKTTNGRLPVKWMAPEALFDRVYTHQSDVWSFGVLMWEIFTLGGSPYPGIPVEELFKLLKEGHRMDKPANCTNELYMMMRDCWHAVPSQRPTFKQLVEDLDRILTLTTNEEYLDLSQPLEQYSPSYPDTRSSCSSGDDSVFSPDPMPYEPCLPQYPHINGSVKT
Tyrosine-protein kinase CSK (Homo sapiens), sequence (P41240 2-450 limits assumed): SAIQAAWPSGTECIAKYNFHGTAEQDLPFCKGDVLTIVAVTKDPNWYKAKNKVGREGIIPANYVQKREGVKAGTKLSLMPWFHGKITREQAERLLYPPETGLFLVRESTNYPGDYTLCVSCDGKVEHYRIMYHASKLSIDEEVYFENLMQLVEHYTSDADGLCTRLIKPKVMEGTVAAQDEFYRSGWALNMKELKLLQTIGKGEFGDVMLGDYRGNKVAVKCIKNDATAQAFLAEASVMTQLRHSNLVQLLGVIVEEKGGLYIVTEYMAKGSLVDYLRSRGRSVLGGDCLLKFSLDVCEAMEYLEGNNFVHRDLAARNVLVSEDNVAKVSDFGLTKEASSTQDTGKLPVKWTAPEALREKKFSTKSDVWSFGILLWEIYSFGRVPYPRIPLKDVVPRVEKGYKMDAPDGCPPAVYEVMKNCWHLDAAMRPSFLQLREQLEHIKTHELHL

SMILES: O[C@H]1CC[C@H](Nc2ncc3nc(Nc4c(F)cc(F)cc4F)n([C@H]4CCOC4)c3n2)CC1
% of control [1]: 100%

SMILES: CNC(=O)Nc1ccc(-c2nc(N3CC4CCC(C3)O4)c3cnn(C4CCC5(CC4)OCCO5)c3n2)cc1
% of control [2]: 92%

SMILES: C=CC(=O)Nc1cc(-n2c(=O)ccc3cnc4ccc(-c5ccc(NS(C)(=O)=O)cc5)cc4c32)ccc1C
% of control ([3]; at 1 µM): 100%
% of control ([3]; at 10 µM): 100%

% of inhibition [4]: -4.4%
% of inhibition [5]: 11.4%
% of inhibition [6]: 16.1%
SMILES: CC[C@@H]1[C@H](F)C(=O)N[C@@H]1COc1nccc2cc(C(N)=O)c(OC)cc12 [ZIMLOVISERTIB]

% of control ([7]; at 1 µM): 65%
% of control ([7]; at 5 µM): 32%
% of control ([8]; at 1 µM): 72%
% of control ([8]; at 5 µM): 46%
SMILES: C=CC(=O)Nc1cccc(C(=O)Nc2ccc(Nc3cc(-c4[nH]c(SC)nc4C)ccn3)cc2)c1
